Like-named read-outs stand apart in the source and are kept apart here.
Columns and labels:
Aggrecanase-1 = target: T1, Aggrecanase-1 (Homo sapiens, UniProt O75173); assay: Aggrecanase-1 FRET assay; assay type: biochemical; conditions: for IC50: rAgg1, WAAG-3R substrate, read-out: AGG-1 IC50
T1 sequence (O75173 213-837): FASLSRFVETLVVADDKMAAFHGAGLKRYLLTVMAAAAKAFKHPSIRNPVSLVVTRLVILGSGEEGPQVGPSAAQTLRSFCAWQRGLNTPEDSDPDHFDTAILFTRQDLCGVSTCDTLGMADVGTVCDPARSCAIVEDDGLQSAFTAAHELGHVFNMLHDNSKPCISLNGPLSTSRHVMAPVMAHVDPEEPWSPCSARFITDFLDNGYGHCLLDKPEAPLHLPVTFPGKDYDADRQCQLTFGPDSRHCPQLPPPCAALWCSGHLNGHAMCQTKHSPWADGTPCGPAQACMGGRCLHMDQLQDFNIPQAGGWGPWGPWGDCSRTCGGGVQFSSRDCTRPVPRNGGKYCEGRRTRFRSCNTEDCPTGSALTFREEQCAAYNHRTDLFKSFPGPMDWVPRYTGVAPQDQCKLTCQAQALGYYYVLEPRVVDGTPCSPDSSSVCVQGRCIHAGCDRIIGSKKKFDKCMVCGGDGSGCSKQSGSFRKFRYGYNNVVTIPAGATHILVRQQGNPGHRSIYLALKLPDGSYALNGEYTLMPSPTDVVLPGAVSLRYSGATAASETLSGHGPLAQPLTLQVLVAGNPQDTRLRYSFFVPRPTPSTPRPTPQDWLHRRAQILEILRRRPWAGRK
Procedure: h. Aggrecanase-1 FRET Assay:
The following protocol was used: • Fluorimeter was started and temperature set to 30° C., about 30 min before setting up the assay. The following reagents are used: • Buffer: 50 mM HEPES, pH 7.5, 100 mM NaCl, 5 mM CaCl2, 0.1% CHAPS, 5% glycerol. • rAgg1: 5 μg/ml (final concentration in the assay): • Substrate: WAAG-3R (MWT=1645.8, Anaspec, stored at 4° C.). Make a stock at 2 mg/ml in 100% DMSO. Measure the absorbance at 354 nm (ε=18172 M^−1 cm^−1) to determine the exact concentration. Dilute to 62.5 μM in buffer. Store unused 100% DMSO stock at −80° C. Final concentration of substrate in the assay is 25 μM. […] Make up inhibitors at 10× starting concentration in 100% DMSO. Perform serial dilutions (in duplicate) across the nunc plate in 100% DMSO; • Dilution plates: Nunc, polypropylene low binding (Nalgene) • Assay plate: Fluoronunc (Nalgene) • Fluorimeter: GeminiXS (Molecular Devices).; • The assay is performed as follows: The plates are set up so that the final column (12) is used for controls. Total reaction volume is 100 μl. Each compound is assayed in duplicate, so 4 compounds are screened per plate. • 1) Add buffer to the entire 96-well plate (30 ρl/well). • 2) Dilute rAgg1 to 25 μg/ml buffer just prior to addition on the plate. Add 20 μl/well to all wells. Mix 6 times. • 3) Add 10 μl/well of 10× inhibitors from the working plate, except column 12. Mix 6 times. […] Mix 6 times.
The reaction is monitored for 30-40 min at 30° C. λex: 340 nm and λ em: 420 nm). The fluorescence is linear during this time and the slope of the line (Vmax/sec) represents the initial reaction rate, ν. The maximal rate of cleavage of substrate is determined in the absence of inhibitor. The percent inhibition of activity in the presence of inhibitor is calculated as follows:
[formula] The IC50 was obtained by fitting the initial rate, ν, or % inhibition at each concentration of inhibitor to the following equation in Excel. y=(a−d)/(1+C/IC50)^n)+d This model describes a sigmoidal curve with an adjustable baseline, […]. y is the % inhibition or initial rate of reaction, C is the concentration of inhibitor under test. a is the limiting response as C approaches zero. […] The sign of n is positive when the response increases with increasing dose and is negative when the response decreases with increasing dose (inhibition).

MMP-13 = target: T2, MMP-13 (Homo sapiens, UniProt P45452); assay: In-vitro fluorescence assay of MMP-13 activity; assay type: biochemical
T2 construct: made in house

MMP-1 = target: T3, MMP-1 (Homo sapiens, UniProt P03956)
T3 sequence (P03956 100-269 limits assumed): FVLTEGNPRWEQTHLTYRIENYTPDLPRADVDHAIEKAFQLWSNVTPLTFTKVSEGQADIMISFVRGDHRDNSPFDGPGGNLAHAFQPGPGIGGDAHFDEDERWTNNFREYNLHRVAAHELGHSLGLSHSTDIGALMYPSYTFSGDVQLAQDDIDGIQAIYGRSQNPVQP

MMP-9 = target: T4, MMP-9 (Homo sapiens, UniProt P14780); assay: MMP-9 activity assay; assay type: biochemical; conditions: recombinant human MMP-9
T4 construct: Active, recombinant human MMP-9 (83 kDa) was purchased from Calbiochem (catalog #PF024); purchased Calbiochem PF024
T4 sequence (P14780 107-707 limits assumed): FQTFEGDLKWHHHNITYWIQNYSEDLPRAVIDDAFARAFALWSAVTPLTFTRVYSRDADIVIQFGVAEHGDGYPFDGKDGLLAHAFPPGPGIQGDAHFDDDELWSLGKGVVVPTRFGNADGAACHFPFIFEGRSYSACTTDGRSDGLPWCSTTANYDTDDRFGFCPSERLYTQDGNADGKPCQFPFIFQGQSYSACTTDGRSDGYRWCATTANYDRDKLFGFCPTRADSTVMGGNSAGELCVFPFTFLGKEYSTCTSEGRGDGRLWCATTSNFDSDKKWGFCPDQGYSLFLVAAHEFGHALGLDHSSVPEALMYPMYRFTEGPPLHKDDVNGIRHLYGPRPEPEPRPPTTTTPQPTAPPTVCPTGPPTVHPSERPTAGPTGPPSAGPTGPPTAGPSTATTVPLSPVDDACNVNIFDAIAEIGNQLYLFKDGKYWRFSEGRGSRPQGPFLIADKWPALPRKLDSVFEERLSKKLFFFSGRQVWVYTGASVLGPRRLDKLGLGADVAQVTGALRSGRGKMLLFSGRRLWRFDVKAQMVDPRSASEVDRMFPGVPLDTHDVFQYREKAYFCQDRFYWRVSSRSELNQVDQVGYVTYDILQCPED

MMP-2 = target: T5, MMP-2 (Homo sapiens, UniProt P08253); assay: In-vitro fluorescence assay of MMP-2 activity; assay type: biochemical
T5 construct: purchased Oncogene Research Products (Calbiochem) PF023
T5 sequence (P08253 110-660): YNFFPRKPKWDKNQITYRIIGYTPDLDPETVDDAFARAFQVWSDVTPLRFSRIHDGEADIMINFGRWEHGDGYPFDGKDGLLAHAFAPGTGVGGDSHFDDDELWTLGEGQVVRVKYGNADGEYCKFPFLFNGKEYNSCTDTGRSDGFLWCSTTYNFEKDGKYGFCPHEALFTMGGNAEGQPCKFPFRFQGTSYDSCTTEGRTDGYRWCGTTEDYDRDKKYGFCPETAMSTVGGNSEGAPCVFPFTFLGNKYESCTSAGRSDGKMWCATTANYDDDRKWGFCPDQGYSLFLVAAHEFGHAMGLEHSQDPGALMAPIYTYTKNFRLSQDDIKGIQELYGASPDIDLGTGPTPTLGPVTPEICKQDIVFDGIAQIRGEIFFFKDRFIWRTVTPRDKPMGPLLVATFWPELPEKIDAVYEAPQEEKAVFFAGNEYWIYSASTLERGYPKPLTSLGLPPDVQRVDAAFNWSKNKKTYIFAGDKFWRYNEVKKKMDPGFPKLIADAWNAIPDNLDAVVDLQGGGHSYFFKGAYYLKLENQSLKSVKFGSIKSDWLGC

MMP-14 = target: T6, MMP-14 (Homo sapiens, UniProt P50281); assay: In-vitro fluorescence assay of MMP-14 activity; assay type: biochemical
T6 construct: 20 kDa; purchased Chemicon International, Inc. CC 1041

MMP-12 = target: T7, MMP-12 (Homo sapiens, UniProt P39900); assay: In vitro fluorescence assay of MMP-12 activity; assay type: biochemical; conditions: recombinant human MMP-12
T7 construct: made in house
T7 sequence (P39900 106-280 limits assumed): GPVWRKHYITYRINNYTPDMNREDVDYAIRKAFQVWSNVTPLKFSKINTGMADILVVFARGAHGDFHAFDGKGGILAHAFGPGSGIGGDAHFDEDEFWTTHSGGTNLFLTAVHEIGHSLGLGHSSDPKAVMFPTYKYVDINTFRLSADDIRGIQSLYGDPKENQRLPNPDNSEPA

[1] = recombinant human catalytic domain of MMP-13, read-out: MMP-13 IC50
[2] = recombinant human MMP-2, read-out: MMP-2 IC50
[3] = recombinant human catalytic domain of MMP-14

Row | Structure (SMILES) | IC50 (MMP-13; [1]) [µM] | IC50 (MMP-2; [2]) [µM] | IC50 (Aggrecanase-1) [µM] | IC50 (MMP-14; [3]) [µM] | other results
1 | CC(C)C(NS(=O)(=O)c1ccc(-c2ccc(NS(=O)(=O)c3cccs3)cc2)cc1)C(=O)O (stereo in doubt) [Example 171, (R)-3-Methyl-2-[4′-(thiophene-2-sulfonylamino)-biphenyl-4-sulfonylamino]-butyric acid] | 1.09 |  |  |  | inhibition at 150 µM (Aggrecanase-1; read-out: AGG-1 % inhibition at a concentration): 60%
2 | CC(C)[C@H](NS(=O)(=O)c1ccc(-c2ccc(NC(=O)c3cc4ccccc4o3)cc2)cc1)C(=O)O [Example 2, L-2-{4′-[(Benzofuran-2-carbonyl)-amino]-biphenyl-4-sulfonylamino}-3-methyl-butyric acid] |  | 0.0065 |  |  | IC50 (MMP-1): > 3.5 µM; IC50 (MMP-9): 1.1 µM; IC50 (MMP-14): 2.2 µM
3 | Cc1cc(-c2ccc(S(=O)(=O)N[C@@H](C(=O)O)C(C)C)cc2)cc(C)c1OC(=O)c1oc2ccccc2c1C [Example 132, D-3-Methyl-benzofuran-2-carboxylic acid 4′-(1-carboxy-2-methyl-propylsulfamoyl)-3,5-dimethyl-biphenyl-4-yl ester] | 0.014 | 0.346 | 2.2 | 100 | 
4 | Cc1c(C(=O)Oc2ccc(-c3ccc(S(=O)(=O)N[C@@H](C(=O)O)C(C)C)cc3)cc2)oc2ccccc12 [Example 134, D-3-Methyl-benzofuran-2-carboxylic acid 4′-(1-carboxy-2-methyl-propylsulfamoyl)-biphenyl-4-yl ester] | 0.0012 | 0.017 | 0.113 | 6.25 | 
5 | CC(C)[C@@H](NS(=O)(=O)c1ccc(-c2ccc(OCc3nc4ccccc4s3)cc2)cc1)C(=O)O [Example 137, D-2-[4′-(Benzothiazol-2-ylmethoxy)-biphenyl-4-sulfonylamino]-3-methyl-butyric acid] | 0.0046 | 0.0239 | 2.5 |  | inhibition at […] (MMP-14; read-out: MMP-14 % inhibition at a concentration, at 1.6 uM): 49%
6 | CC(C)[C@@H](NS(=O)(=O)c1ccc(-c2ccc(OC(=O)c3ccco3)cc2)cc1)C(=O)O [Example 144, N-{[4′-(2-Furoyloxy)-1,1′-biphenyl-4-yl]sulfonyl}-D-valine] |  |  | 11.6 |  | 
7 | CC(C)[C@@H](NS(=O)(=O)c1ccc(-c2ccc(OC(=O)c3ccoc3)cc2)cc1)C(=O)O [Example 145, N-{[4′-(3-Furoyloxy)-1,1′-biphenyl-4-yl]sulfonyl}-D-valine] |  |  | 8.6 |  | 
8 | COc1c(Br)ccc2oc(COc3ccc(-c4ccc(S(=O)(=O)N[C@H](C(=O)O)C(C)C)cc4)cc3)c(C)c12 [Example 148, N-({4′-[(5-Bromo-4-methoxy-3-methyl-1-benzofuran-2-yl)methoxy]-1,1′-biphenyl-4-yl}sulfonyl)-L-valine] |  |  | 0.4 |  | IC50 (MMP-13; MMP-13 IC50, recombinant human catalytic domain of MMP-13): 0.0014 µM; IC50 (MMP-2): 0.136 µM

Further lines, with some results ahead:

Row | IC50 (MMP-13; [1]) [µM] | IC50 (MMP-2; [2]) [µM] | IC50 (Aggrecanase-1) [µM] | IC50 (MMP-14; [3]) [µM] | Structure (SMILES) | other results
9 |  |  | 42 |  | CC(C)[C@@H](NS(=O)(=O)c1ccc(-c2ccc(N(C)C(=O)c3cc4ccccc4o3)cc2)cc1)C(=O)O [Example 75, D-2-{4′-[(Benzofuran-2-carbonyl)-methyl-amino]-biphenyl-4-sulfonylamino}-3-methyl-butyric acid] | 
10 | 0.0052 | 0.064 | 0.8 | 12 | Cc1cc(-c2ccc(S(=O)(=O)N[C@@H](C(=O)O)C(C)C)cc2)cc(C)c1OC(=O)c1cc2ccccc2o1 [Example 133, D-Benzofuran-2-carboxylic acid 4′-(1-carboxy-2-methyl-propylsulfamoyl)-3,5-dimethyl-biphenyl-4-yl ester] | IC50 (MMP-1): 100 µM
11 | 0.0011 | 0.0056 | 12.7 | 1.43 | CC(C)[C@@H](NS(=O)(=O)c1ccc(-c2ccc(CS(=O)(=O)c3cc4ccccc4o3)cc2)cc1)C(=O)O [Example 164, D-2-[4′-(Benzofuran-2-sulfonylmethyl)-biphenyl-4-sulfonylamino]-3-methyl-butyric acid] | IC50 (MMP-1): 500 µM
12 | 0.0012 | 0.0056 | 20 | 2.12 | CC(C)[C@@H](NS(=O)(=O)c1ccc(-c2ccc(C[S+]([O-])c3cc4ccccc4o3)cc2)cc1)C(=O)O (stereo partly drawn) [Example 165, D-2-[4′-(Benzofuran-2-sulfinylmethyl)-biphenyl-4-sulfonylamino]-3-methyl-butyric acid] | IC50 (MMP-12): 0.0046 µM
13 | 0.029 | 0.0069 | 43 | 8.92 | CC(C)[C@@H](NS(=O)(=O)c1ccc(-c2ccc(NC(=O)c3ccco3)cc2)cc1)C(=O)O [Example 172, (R)-2-{4′-[(Furan-2-carbonyl)-amino]-biphenyl-4-sulfonylamino}-3-methyl-butyric acid] | IC50 (MMP-1): 18.5 µM
14 | 0.115 |  | 25.4 |  | CC(C)[C@@H](NS(=O)(=O)c1ccc(-c2ccc(NC(=O)c3cccs3)cc2)cc1)C(=O)O [Example 173, (R)-3-Methyl-2-{4′-[(thiophene-2-carbonyl)-amino]-biphenyl-4-sulfonylamino}-butyric acid] | 

Source: patent publication US7420001B2 (Wyeth, priority 2003, dated 2008)
